The assay relates to cat fleas. Nature of the assay: Cat flea emergence inhibition from eggs on treated flea-rearing medium. Format: in vivo. The settings on record: 20 flea eggs, after approximately three weeks, corrected against acetone control. Here is the method: Six gram quantities of medium for rearing fleas (mixed to make sand/powdered feed/dry yeast/dry bovine blood=80/16/3/1 wt %) were placed in vials. Acetone solutions were prepared so that the hydrazide compounds and pyriproxyfen would have the concentrations (wt % versus the medium) shown in Table 2 in the treated medium for rearing fleas. The medium was treated by 1.0 mL of the acetone solution, stirred until homogeneous, and dried. Filter paper (TOYO No. 2; 3.8 cm in diameter) was placed on aluminum dishes 3.8 cm in diameter, and 20 flea eggs were placed on the filter paper using a suitably moistened brush. A quantity of 1.0 g of the dried, treated medium was placed evenly on top of the filter paper on which the eggs rested, and the aluminum dishes were placed in resin petri dishes and stored at a temperature of 26° C. and humidity of 85-95%. Medium that had been treated only by acetone was also processed by the same method as a control group. After approximately three weeks, the emergence of the cat fleas was examined, and the emergence inhibition rate was calculated by the following formula.
Corrected emergency inhibition rate=(C−T)÷C×100
C: Emergence rate of untreated control group
T: Emergence rate of treated group

Where [1] appears, read: hydrazide compound 0.4 × 10^−4 % in combination with pyriproxyfen 10^−8 % (wt % versus the medium).
The mark [2] stands for this setting: hydrazide compound alone, 0.4 × 10^−4 % (wt % versus the medium).

Regarding `CC(COc1ccc(Oc2ccccc2)cc1)Oc1ccccn1` (centres unmarked) [Pyriproxyfen, 4-phenoxyphenyl=2-(pyridyloxy)propyl=ether, reference compound], the “Emergence inhibition rate (%)” value (pyriproxyfen alone, 10^−8 % (wt % versus the medium)) is 4.0%.
As for `O=C(CCC(F)(F)F)NNc1cc(C2=NOC(c3cc(Cl)cc(Cl)c3)(C(F)(F)F)C2)ccc1Cl` (centres unmarked) [Hydrazide compound (17), N′-{5-[5-(3,5-dichlorophenyl)-5-trifluoromethyl-4,5-dihydroisoxazol-3-yl]-2-chlorophenyl}-4,4,4-trifluorobutyrohydrazide], the “Emergence inhibition rate (%)” value is 63% under setting [1] and 6.3% under setting [2].
For `CN(NC(=O)CCC(F)(F)F)c1cc(C2=NOC(c3cc(Cl)cc(Cl)c3)(C(F)(F)F)C2)ccc1Cl` (centres unmarked) [Hydrazide compound (31), N′-methyl-N′-{2-chloro-5-[5-(3,5-dichlorophenyl)-5-trifluoromethyl-4,5-dihydroisoxazol-3-yl]phenyl}-4,4,4-trifluorobutyrohydrazide], in that order: 86% and 34%.

Values taken from patent US20120035218A1, “PEST CONTROL COMPOSITION” (SUMITOMO CHEMICAL COMPANY, LIMITED, priority 2010, published 2012).
